We go through 20 compounds from US9624229B2, “Pyrimidine-2-amine compounds and their use as inhibitors of JAK kinases” (Rigel Pharmaceuticals, Inc., priority 2008, dated 2017).

Where only a bound is given, the exact number is not on record here.

One experiment deals with Ba/F3 V617F cells (Homo sapiens, UniProt O60674, V617F, cells depend on it). In words: Proliferation assay (Cell Titer-Glo, 72 h) utilizing Ba/F3 V617F cells. The experiment is classed as cell-based, mouse. The note with it: Ba/F3 V617F cells, proliferation, level of activity given as class symbol, read-out: IC50 (the source's name). Here is the method: Ba/F3 V617F cells are maintained and plated in RPMI with 10% FBS. Plating density for these cells is 1×10^5 cells/mL.
Chain of Ba/F3 V617F cells (O60674 whole entry V617F): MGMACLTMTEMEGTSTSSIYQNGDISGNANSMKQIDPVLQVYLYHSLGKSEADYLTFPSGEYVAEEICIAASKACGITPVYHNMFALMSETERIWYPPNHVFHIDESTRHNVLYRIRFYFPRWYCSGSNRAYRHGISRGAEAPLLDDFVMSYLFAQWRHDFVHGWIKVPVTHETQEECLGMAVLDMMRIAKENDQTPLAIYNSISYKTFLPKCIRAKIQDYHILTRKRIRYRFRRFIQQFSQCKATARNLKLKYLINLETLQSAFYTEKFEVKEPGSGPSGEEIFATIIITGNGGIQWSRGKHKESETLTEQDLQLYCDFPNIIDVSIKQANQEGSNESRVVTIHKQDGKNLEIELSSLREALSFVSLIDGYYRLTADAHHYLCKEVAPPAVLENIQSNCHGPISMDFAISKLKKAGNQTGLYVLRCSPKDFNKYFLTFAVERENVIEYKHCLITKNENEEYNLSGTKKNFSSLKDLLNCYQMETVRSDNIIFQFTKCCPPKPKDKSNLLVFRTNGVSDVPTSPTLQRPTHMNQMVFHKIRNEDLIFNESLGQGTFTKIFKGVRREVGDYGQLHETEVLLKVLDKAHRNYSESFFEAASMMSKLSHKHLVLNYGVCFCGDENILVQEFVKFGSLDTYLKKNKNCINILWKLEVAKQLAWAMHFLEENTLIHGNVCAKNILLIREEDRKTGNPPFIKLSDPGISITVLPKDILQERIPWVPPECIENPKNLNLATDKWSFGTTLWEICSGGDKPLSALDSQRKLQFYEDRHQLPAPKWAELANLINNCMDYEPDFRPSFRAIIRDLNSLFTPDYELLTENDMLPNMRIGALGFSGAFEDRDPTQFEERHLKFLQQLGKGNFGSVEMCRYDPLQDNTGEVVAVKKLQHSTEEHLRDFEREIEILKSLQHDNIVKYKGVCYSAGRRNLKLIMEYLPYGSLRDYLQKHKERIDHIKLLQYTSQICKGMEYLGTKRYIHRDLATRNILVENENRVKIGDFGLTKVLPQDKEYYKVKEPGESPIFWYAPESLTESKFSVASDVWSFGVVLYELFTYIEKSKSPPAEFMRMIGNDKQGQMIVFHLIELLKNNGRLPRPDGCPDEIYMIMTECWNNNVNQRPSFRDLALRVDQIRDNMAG
The cells were resuspended in a corresponding medium at a required cell density (see above). 100μ of cell suspension was added to each well of a flat bottom 96 well white plate. The compound was serially diluted in DMSO from 5 mM in 3-fold dilutions, and then diluted 1:250 in the RPMI 1640 medium containing 5% FBS and pen/strep. 100 μL of resulting 2× compound solution was added per well in duplicate and the cells were allowed to proliferate for 72 hours at 37° C.
Proliferation was measured using Cell Titer-Glo. The substrate was thawed and allowed to come to ambient temperature. After removal of top 100 μL of medium from each well, 100 μL of the premixed Cell Titer-Glo reagent was added to each well. The plates were mixed on an orbital shaker for three minutes to induce lysis and incubated at ambient temperature for an additional five minutes to allow the signal to equilibrate. The Luminescence was read on the Wallac Plate Reader.
The results of the ability of the compounds of the invention to inhibit JAK2 activity, when tested in the above assay utilizing Ba/F3 V617F cells, are shown in the following Tables 2-3 wherein the level of activity (i.e., the IC50) for each compound is indicated in Tables 2-3. The compound numbers in Tables 2-3 refers to the compounds disclosed herein as being prepared by the methods disclosed herein: […]
For orientation: Cellular ATP, detected with luciferase, serves as a proxy for viable cell number.
On to `Cc1cc(Nc2nccc(-c3cnc4c(c3)OCC(=O)N4)n2)ccc1N1C[C@@H]2C[C@H]1CO2` [compound 210, 4-(3-oxo-3,4-dihydro-2H-pyrido[3,2-b][1,4]oxazin-7-yl)-N-(3-methyl-4-((1S,4S)-5-oxa-2-azabicyclo[2.2.1]heptan-2-yl)phenyl)pyrimidin-2-amine], for which the GI50 was less than 1000 nM. The same measure, in the same setting: the same measure for `Cc1cc(Nc2nccc(-c3ccc(NCCCN(C)C)nc3)n2)ccc1N1C[C@@H]2C[C@H]1CO2` [compound 203, 4-(6-(3-dimethylamino)propylaminopyridin-3-yl)-N-(3-methyl-4-((1S,4S)-5-oxa-2-azabicyclo[2.2.1]heptan-2-yl)phenyl)pyrimidin-2-amine]: less than 1000 nM; for `Cc1cc(Nc2nccc(-c3ccc(N4CCCOCC4)nc3)n2)ccc1N1C[C@@H]2C[C@H]1CN2C` [compound 206, 4-(6-(1,4-oxazepan-4-yl)pyridin-3-yl)-N-(3-methyl-4-((1S,4S)-5-methyl-2,5-diazabicyclo[2.2.1]heptan-2-yl)phenyl)pyrimidin-2-amine]: less than 1000 nM. For the compound `CN1CC2(C)CN(c3ccc(Nc4nccc(-c5cnc6c(c5)OC(C)(C)C(=O)N6)n4)cc3F)CC(C)(C1)C2` [compound 208, 4-(2,2-dimethyl-3-oxo-3,4-dihydro-2H-pyrido[3,2-b][1,4]oxazin-7-yl)-N-(3-fluoro-4-(1,5,7-trimethyl-3,7-diazabicyclo[3.3.1]nonan-3-yl)phenyl)pyrimidin-2-amine], the GI50 was 1000 to 10000 nM. Still for that read-out and setting: under `Cc1cc(Nc2nccc(-c3cnc4c(c3)OC(C)(C)C(=O)N4)n2)ccc1N1C[C@@H]2C[C@H]1CN2C1CCCC1` [compound 250, 4-(2,2-dimethyl-3-oxo-3,4-dihydro-2H-pyrido[3,2-b][1,4]oxazin-7-yl)-N-(3-methyl-4-((1S,4S)-5-cyclopentyl-2,5-diazabicyclo[2.2.1]heptan-2-yl)phenyl)pyrimidin-2-amine] stands less than 1000 nM; under `CC(=O)N1C[C@@H]2C[C@H]1CN2c1ccc(Nc2nccc(-c3cnc4c(c3)OC(C)(C)C(=O)N4)n2)cc1C` [compound 251, 4-(2,2-dimethyl-3-oxo-3,4-dihydro-2H-pyrido[3,2-b][1,4]oxazin-7-yl)-N-(3-methyl-4-((1S,4S)-5-acetyl-2,5-diazabicyclo[2.2.1]heptan-2-yl)phenyl)pyrimidin-2-amine], less than 1000 nM.

Staying with this experiment, now noted: Ba/F3 V617F cells, proliferation, level of activity to inhibit JAK2, read-out: IC50 (the source's name).
In the case of `CCC(=O)N1C[C@@H]2C[C@H]1CN2c1ccc(Nc2nccc(-c3ccc(NC(C)=O)nc3)n2)cc1C` [compound 149, 4-(6-(acetamido)pyridin-3-yl)-N-(3-methyl-4-((1S,4S)-5-ethylcarbonyl-2,5-diazabicyclo[2.2.1]heptan-2-yl)phenyl)pyrimidin-2-amine], the GI50 is less than 1000 nM. On the same count and under the same terms, the same measure for `CC1(C)Oc2cc(-c3ccnc(Nc4ccc(N5C[C@@H]6C[C@H]5CN6)c(C(F)(F)F)c4)n3)cnc2NC1=O` [compound 172, 4-(2,2-dimethyl-3-oxo-3,4-dihydro-2H-pyrido[3,2-b][1,4]oxazin-7-yl)-N-(3-trifluoromethyl-4-((1S,4S)-2,5-diazabicyclo[2.2.1]heptan-2-yl)phenyl)pyrimidin-2-amine]: less than 1000 nM; for `Cc1cc(Nc2nccc(-c3ccc(NC(=O)C(C)(C)C)cc3)n2)ccc1N1CC2CCC(C1)N2C` [compound 168, 4-(4-(t-butylcarbonylamino)phenyl)-N-(3-methyl-4-(8-methyl-3,8-diazabicyclo[3.2.1]octan-3-yl)phenyl)pyrimidin-2-amine]: less than 1000 nM; for `Cc1cc(Nc2nccc(-c3ccc(Cc4ccccc4)nc3)n2)ccc1N1CC2(C)CN(C)CC(C)(C1)C2` [compound 90, 4-(6-(benzyl)pyridin-3-yl)-N-(3-methyl-4-(1,5,7-trimethyl-3,7-diazabicyclo[3.3.1]nonan-3-yl)phenyl)pyrimidin-2-amine]: less than 1000 nM.

`CCN1C[C@@H]2C[C@H]1CN2c1ccc(Nc2nccc(-c3ccc(N(C)C)nc3)n2)cc1C` [compound 24, 4-(6-(dimethylamino)pyridin-3-yl)-N-(3-methyl-4-((1S,4S)-5-ethyl-2,5-diazabicyclo[2.2.1]heptan-2-yl)phenyl)pyrimidin-2-amine]: the GI50 was less than 1000 nM. For `CN(C)c1ccc(-c2nc(Nc3ccc(N4C[C@@H]5C[C@H]4CN5C)c(F)c3)ncc2F)cn1` [compound 5, 4-(6-(N,N-dimethylamino)pyridin-3-yl)-5-fluoro-N-(3-fluoro-4-((1S,4S)-5-methyl-2,5-diazabicyclo[2.2.1]heptan-2-yl)phenyl)pyrimidin-2-amine], the GI50 fell in the range of 1000 to 10000 nM. Regarding `CN(C)c1ccc(-c2ccnc(Nc3ccc(N4C[C@@H]5C[C@H]4CN5C)cc3)n2)cn1` [compound 183, 4-(6-(dimethylamino)pyridin-3-yl)-N-(4-((1S,4S)-5-methyl-2,5-diazabicyclo[2.2.1]heptan-2-yl)phenyl)pyrimidin-2-amine], the GI50 was less than 1000 nM. Same read-out and setting: the same measure for `CN1C[C@@H]2C[C@H]1CN2c1ccc(Nc2nccc(-c3cnc(N4CCOCC4)nc3)n2)cc1` [compound 40, 4-(2-(morpholin-4-yl)pyrimidin-5-yl)-N-(4-((1S,4S)-5-methyl-2,5-diazabicyclo[2.2.1]heptan-2-yl)phenyl)pyrimidin-2-amine]: 1000 to 10000 nM; for `Cc1cc(Nc2nccc(-c3cnc(N4CCOCC4)cn3)n2)ccc1N1C[C@@H]2C[C@H]1CN2C` [compound 178, 4-(5-(morpholin-4-yl)pyrazin-2-yl)-N-(3-methyl-4-((1S,4S)-5-methyl-2,5-diazabicyclo[2.2.1]heptan-2-yl)phenyl)pyrimidin-2-amine]: 1000 to 10000 nM. Same read-out and setting: under `CN1C[C@@H]2C[C@H]1CN2c1ccc(Nc2nccc(-c3ccc(NCCN4CCOCC4)nc3)n2)cc1` [compound 69, 4-(6-(2-(morpholin-4-yl)ethyl)aminopyridin-3-yl)-N-(4-((1S,4S)-5-methyl-2,5-diazabicyclo[2.2.1]heptan-2-yl)phenyl)pyrimidin-2-amine] stands 1000 to 10000 nM. The same measure, in the same setting: the same measure for `CN1C[C@@H]2C[C@H]1CN2c1ccc(Nc2nccc(-c3cnc4c(c3)OC(C)(C)C(=O)N4)n2)cc1F` [compound 19, 4-(2,2-dimethyl-3-oxo-3,4-dihydro-2H-pyrido[3,2-b][1,4]oxazin-7-yl)-N-(3-fluoro-4-((1S,4S)-5-methyl-2,5-diazabicyclo[2.2.1]heptan-2-yl)phenyl)pyrimidin-2-amine]: less than 1000 nM.

Regarding `CCOc1ccc(-c2ccnc(Nc3ccc(N4C[C@@H]5C[C@H]4CN5C)c(F)c3)n2)cn1` [compound 174, 4-(6-ethoxypyridin-3-yl)-N-(3-fluoro-4-((1S,4S)-5-methyl-2,5-diazabicyclo[2.2.1]heptan-2-yl)phenyl)pyrimidin-2-amine], the GI50 is 1000 to 10000 nM. On the same count and under the same terms, under `CCOc1ccc(-c2ccnc(Nc3ccc(N4C[C@@H]5C[C@H]4CN5C)c(C)c3)n2)cn1` [compound 173, 4-(6-ethoxypyridin-3-yl)-N-(3-methyl-4-((1S,4S)-5-methyl-2,5-diazabicyclo[2.2.1]heptan-2-yl)phenyl)pyrimidin-2-amine] stands less than 1000 nM; under `CN1C[C@H]2C[C@@H]1CN2c1ccc(Nc2nccc(-c3ccc(N4CCOCC4)nc3)n2)cc1F` [compound 74, 4-(6-(morpholin-4-yl)pyridin-3-yl)-N-(3-fluoro-4-((1R,4R)-5-methyl-2,5-diazabicyclo[2.2.1]heptan-2-yl)phenyl)pyrimidin-2-amine], less than 1000 nM.
